This note sets out measurements from US20110104695A1, “METHODS OF PREDICTING THERAPEUTIC EFFICACY OF CANCER THERAPY” (Epigenomics AG, priority 2009, published 2011).

Each structure is given as a SMILES string.

Series [1] has as its system TFAP2E. Description: TFAP2E mRNA expression by RT-PCR in CRC cell lines after drug treatment. It counts as cell-based, human. The protocol:
Colon cancer cell lines LOVO and DLD-1 were obtained from the Deutsche Sammlung von Mikroorganismen und Zellkulturen GmbH (Braunschweig, Germany). SW480, HT-29, HCT-116 and CACO-2 colon cancer cell lines were obtained from ATCC (Washington, D.C., USA). Cells were cultured in 90% DMEM medium supplemented with 10% fetal bovine serum and 2 mM L-glutamine (Invitrogen, Karslruhe, Germany). CACO-2 cells were maintained in 80% DMEM with 20% FBS. […] Culture medium was changed daily for 3 days with recurrent 5-aza-2-deoxycytidine additions. After 3 days, the cells were harvested for total RNA extraction with the RNeasy Total RNA Mini Kit (Qiagen, Hilden, Germany).
The RNA and DNA extraction from cell lines or 10-25 mg of frozen tissue samples was carried out using the RNeasy Total RNA Mini Kit or the QIAmp DNA Mini Kit (Qiagen, Hilden, Germany) respectively, using the manufacturer's instructions.
Genomic DNA was treated with the Epitect Bisulfite Conversion Kit (Qiagen, Hilden, Germany) according to the manufacturer's instructions and then analyzed using the MethyLight technique or MS-HRM as previously described. Cutoff values giving the best discrimination between non-neoplastic mucosa and tumor samples were determined by receiver operating characteristic (ROC) analysis. The expression analysis of the mRNA was performed by RT-PCR with the Verso cDNA Kit (Thermo Fischer, Darmstadt, Germany) according to the manufacturer's instructions.

The subject of series [2] is TFAP2E. Nature of the series: MethyLight analysis of TFAP2E methylation in CRC cell lines. It counts as cell-based, human. Conditions: all CRC cell lines; after 5-azacytidine treatment. The protocol: (§1) Colon cancer cell lines LOVO and DLD-1 were obtained from the Deutsche Sammlung von Mikroorganismen und Zellkulturen GmbH (Braunschweig, Germany). SW480, HT-29, HCT-116 and CACO-2 colon cancer cell lines were obtained from ATCC (Washington, D.C., USA). Cells were cultured in 90% DMEM medium supplemented with 10% fetal bovine serum and 2 mM L-glutamine (Invitrogen, Karslruhe, Germany). CACO-2 cells were maintained in 80% DMEM with 20% FBS. Cells were seeded at a density of 1×10^6 cells/60-mm dish, after twenty-four hours incubated with 5-aza-cytidine (final concentration 10 μmol/L; Sigma, Munich, Germany) or the same amount of DMSO as control. Culture medium was changed daily for 3 days with recurrent 5-aza-2-deoxycytidine additions. After 3 days, the cells were harvested for total RNA extraction with the RNeasy Total RNA Mini Kit (Qiagen, Hilden, Germany).
Primers for methylated TFAP2E covered CpGs in the second CpG island (FIG. 5). […]
(§2) Genomic DNA was treated with the Epitect Bisulfite Conversion Kit (Qiagen, Hilden, Germany) according to the manufacturer's instructions and then analyzed using the MethyLight technique or MS-HRM as previously described. Cutoff values giving the best discrimination between non-neoplastic mucosa and tumor samples were determined by receiver operating characteristic (ROC) analysis. […]

Another series has as its system DKK4. Nature of the series: DKK4 mRNA expression in untransfected CRC cell lines. It counts as cell-based, human. Conditions: SW480 and CACO-2 cells; after 5-azacytidine treatment. The protocol:
as §1, §2

Another series concerns colorectal cancer. Nature of the series: Treatment response in colorectal cancer patient cohorts (RECIST or histology). It counts as in vivo, human. Conditions: Cohort IV (München), primary rectal cancer, chemoradiotherapy (intravenous 5-FU and 45.0 Gy), 68 patients, histological criteria.
Another series deals with SW480 cells. Description: Cell survival after drug exposure (MTT assay), transfected SW480 cells.

Method for colorectal cancer: Samples were obtained from patients undergoing colorectal cancer surgery or chemotherapy at the University Hospitals in Munich, Mannheim, Bochum, Berlin and Dresden (all Germany). Tissues were obtained during resection of the primary tumor or by biopsy. […] Response to chemotherapy was assessed by RECIST criteria, response to chemoradiotherapy by histology as previously described.

Take `CC(/C=C/C(=O)NO)=C\[C@@H](C)C(=O)c1ccc(N(C)C)cc1` [Trichostatin A]: the “TFAP2E expression after treatment” value with TFAP2E [1] (CACO-2 cells, Trichostatin A treatment) is recorded as “weak expression”. Further, the “TFAP2E mRNA levels” value with TFAP2E [1] (CRC cell lines except CACO-2, Trichostatin A treatment) was “no effect”.
For the molecule `Nc1ncn([C@@H]2O[C@H](CO)[C@@H](O)[C@H]2O)c(=O)n1` [5-azacytidine], in the series on TFAP2E [1] (CACO-2 and SW480 cells, 5-aza-cytidine 10 μmol/L, 3 days), the “TFAP2E expression (RT-PCR)” value is “showed expression after 5-aza-cytidine treatment only”. Besides, the “TFAP2E methylation (MethyLight)” value in the series with TFAP2E [2] is “declined”. Moreover, in the series with DKK4, the DKK4 expression result is on record as “lost”.
As to `O=c1[nH]cc(F)c(=O)[nH]1` [5-FU, 5-fluorouracil], the “patients classified as responders” value in the series on colorectal cancer is 47%. The “responsiveness to 5-FU” value with SW480 cells (SW480 transfected with both pTFAP2E and pcDNA3-Dkk4) was “intermediate responsiveness”. Moreover, the “decrease in survival compared to controls” value in the series on SW480 cells (SW480 transiently transfected with pTFAP2E, 5-FU 50 μg/ml, after 2 days) is given as “about 20%”. In addition, the “increase in survival compared to controls” value in the series with SW480 cells (SW480 transiently transfected with pcDNA3-Dkk4, 5-FU 50 μg/ml, after 2 days) is given as “about 10%”.
